Measured values reported in patent US20110195949A1, “2-BENZOTHIOPHENYL- AND 2-NAPHTHYL-OXAZOLIDINONES AND THEIR AZAISOSTERE ANALOGUES AS ANTIBACTERIAL AGENTS” (ACTELION PHARMACEUTICALS LTD., priority 2008, published 2011).
Values after ≈ are worked out from the molar mass of the structure shown.

System: M. catarrhalis A894
Assay: Minimal inhibitory concentration (MIC), microdilution method in cation-adjusted Mueller-Hinton Broth (CLSI M7-A7)
Type: cell-based
Conditions: Moraxella catarrhalis, strain A894
Method: Minimal inhibitory concentrations (MICs; mg/L) were determined in cation-adjusted Mueller-Hinton Broth by a microdilution method following the description given in “Methods for Dilution Antimicrobial Susceptibility Tests for Bacteria that Grow Aerobically”, Approved standard, 7th ed., Clinical and Laboratory Standards Institute (CLSI) Document M7-A7, Wayne, Pa., USA, 2006. All Example compounds were tested against several Gram positive and Gram negative bacteria such as S. aureus, E. faecalis, S. pneumoniae, M. catarrhalis, A. baumanii, E. coli or P. aeruginosa.

Row | MIC [µg/mL] | SMILES
1 | ≤ 0.031 | COc1ccc2ccc(OC[C@@H]3CCN(C[C@@H]4CN(c5ccc6c(c5)NC(=O)CS6)C(=O)O4)C3)nc2c1 [Example 17, 6-{(R)-5-[(R)-3-(7-methoxy-quinolin-2-yloxymethyl)-pyrrolidin-1-ylmethyl]-2-oxo-oxazolidin-3-yl}-4H-benzo[1,4]thiazin-3-one]
2 | 0.25 (≈ 0.522 µM) | COc1ccc2ncc(OCC3CN(C[C@@H]4CN(c5ccc6c(c5)OCCO6)C(=O)O4)C3)nc2c1 [Example 19, (R)-3-(2,3-dihydro-benzo[1,4]dioxin-6-yl)-5-[3-(7-methoxy-quinoxalin-2-yloxymethyl)-azetidin-1-ylmethyl]-oxazolidin-2-one]
3 | ≤ 0.031 | O=C1COc2ccc(N3C[C@@H](CCCNCc4ccc5ccc(F)cc5n4)OC3=O)cc2N1 [Example 3, 6-((R)-5-{3-[(7-fluoro-quinolin-2-ylmethyl)-amino]-propyl}-2-oxo-oxazolidin-3-yl)-4H-benzo[1,4]oxazin-3-one]
4 | 0.125 (≈ 0.27 µM) | O=C1CSc2ccc(N3C[C@@H](CCCNCCc4ccc5ccccc5n4)OC3=O)cc2N1 [Example 25, 6-{(R)-2-oxo-5-[3-(2-quinolin-2-yl-ethylamino)-propyl]-oxazolidin-3-yl}-4H-benzo[1,4]thiazin-3-one]
5 | ≤ 0.031 | COc1ccc2ncc(OCC3CN(C[C@@H]4CN(c5ccc6c(c5)NC(=O)CO6)C(=O)O4)C3)nc2c1 [Example 22, 6-{(R)-5-[3-(7-methoxy-quinoxalin-2-yloxymethyl)-azetidin-1-ylmethyl]-2-oxo-oxazolidin-3-yl}-4H-benzo[1,4]oxazin-3-one]
6 | 4 (≈ 8.92 µM) | O=C1CSc2ccc(N3CC(CCCNCc4cnc5ccccc5c4)OC3=O)cc2N1 (racemic) [Example 11, rac-6-(2-oxo-5-{3-[(quinolin-3-ylmethyl)-amino]-propyl}-oxazolidin-3-yl)-4H-benzo[1,4]thiazin-3-one]
7 | 0.5 (≈ 1.11 µM) | O=C1CSc2ccc(N3CC(CCCNCc4ccc5ccccc5n4)OC3=O)cc2N1 (racemic) [Example 1, rac-6-(2-oxo-5-{3-[(quinolin-2-ylmethyl)-amino]-propyl}-oxazolidin-3-yl)-4H-benzo[1,4]thiazin-3-one]
8 | ≤ 0.031 | O=C1CSc2ccc(N3C[C@@H](CCNCc4ccc5ccccc5n4)OC3=O)cc2N1 [Example 15, 6-((R)-2-oxo-5-{2-[(quinolin-2-ylmethyl)-amino]-ethyl}-oxazolidin-3-yl)-4H-benzo[1,4]thiazin-3-one]
9 | ≤ 0.031 | O=C1CSc2ccc(N3CC(CCCNCc4cc5ncccc5cc4F)OC3=O)cc2N1 (racemic) [Example 6, rac-6-(5-{3-[(6-fluoro-quinolin-7-ylmethyl)-amino]-propyl}-2-oxo-oxazolidin-3-yl)-4H-benzo[1,4]thiazin-3-one]
10 | 0.031 (≈ 0.0713 µM) | O=C1CSc2ccc(N3C[C@@H](CNCCc4ccc5ccccc5n4)OC3=O)cc2N1 [Example 24, 6-{(R)-2-oxo-5-[(2-quinolin-2-yl-ethylamino)-methyl]-oxazolidin-3-yl}-4H-benzo[1,4]thiazin-3-one]
11 | ≤ 0.031 | O=C1CSc2ccc(N3C[C@@H](CCNCCc4ccc5ccccc5n4)OC3=O)cc2N1 [Example 16, 6-{(R)-2-oxo-5-[2-(2-quinolin-2-yl-ethylamino)-ethyl]-oxazolidin-3-yl}-4H-benzo[1,4]thiazin-3-one]

Second part, the compound before the results:

Row | SMILES | MIC [µg/mL]
12 | COc1ccc2ccc(OC3CC(NC[C@@H]4CN(c5ccc6c(c5)NC(=O)CS6)C(=O)O4)C3)nc2c1 (stereo partly drawn) [Example 23, 6-((R)-5-{[3-(7-methoxy-quinolin-2-yloxy)-cyclobutylamino]-methyl}-2-oxo-oxazolidin-3-yl)-4H-benzo[1,4]thiazin-3-one] | ≤ 0.031
13 | O=C1CSc2ccc(N3C[C@@H](CN4CCN(Cc5ccc6ccccc6n5)CC4)OC3=O)cc2N1 [Example 28, 6-[(R)-2-oxo-5-(4-quinolin-2-ylmethyl-piperazin-1-ylmethyl)-oxazolidin-3-yl]-4H-benzo[1,4]thiazin-3-one] | 0.063 (≈ 0.129 µM)
14 | O=C1COc2ccc(N3C[C@@H](CCNCCNc4ccc5ccccc5n4)OC3=O)cc2N1 [Example 26, 6-((R)-2-oxo-5-{2-[2-(quinolin-2-ylamino)-ethylamino]-ethyl}-oxazolidin-3-yl)-4H-benzo[1,4]oxazin-3-one] | 0.25 (≈ 0.559 µM)
15 | O=C1CSc2ccc(N3CC(CCCNCc4ccc5ncccc5c4)OC3=O)cc2N1 (racemic) [Example 14, rac-6-(2-oxo-5-{3-[(quinolin-6-ylmethyl)-amino]-propyl}-oxazolidin-3-yl)-4H-benzo[1,4]thiazin-3-one] | 1 (≈ 2.23 µM)
16 | O=C1CSc2ccc(N3CC(CCCNCc4cc5cccnc5s4)OC3=O)cc2N1 (racemic) [Example 9, rac-6-(2-oxo-5-{3-[(thieno[2,3-b]pyridin-2-ylmethyl)-amino]-propyl}-oxazolidin-3-yl)-4H-benzo[1,4]thiazin-3-one] | 0.125 (≈ 0.275 µM)
17 | O=C1CSc2ccc(N3C[C@H](CNCCCc4ccc5ccccc5n4)OC3=O)cc2N1 [Example 5, 6-{(S)-2-oxo-5-[(3-quinolin-2-yl-propylamino)-methyl]-oxazolidin-3-yl}-4H-benzo[1,4]thiazin-3-one] | ≤ 0.031
18 | COc1ccc2ccc(OCC3CCN(C[C@@H]4CN(c5ccc6c(c5)NC(=O)CS6)C(=O)O4)CC3)nc2c1 [Example 18, 6-{(R)-5-[4-(7-methoxy-quinolin-2-yloxymethyl)-piperidin-1-ylmethyl]-2-oxo-oxazolidin-3-yl}-4H-benzo[1,4]thiazin-3-one] | 0.5 (≈ 0.935 µM)
19 | O=C1CSc2ccc(N3CC(CCCNCc4ccc5ccc(F)cc5n4)OC3=O)cc2N1 (racemic) [Example 2, rac-6-(5-{3-[(7-fluoro-quinolin-2-ylmethyl)-amino]-propyl}-2-oxo-oxazolidin-3-yl)-4H-benzo[1,4]thiazin-3-one] | 0.031 (≈ 0.0664 µM)
20 | O=C1CSc2ccc(N3CC(CCCNCc4cc5nccnc5s4)OC3=O)cc2N1 (racemic) [Example 10, rac-6-(2-oxo-5-{3-[(thieno[2,3-b]pyrazin-6-ylmethyl)-amino]-propyl}-oxazolidin-3-yl)-4H-benzo[1,4]thiazin-3-one] | 0.25 (≈ 0.549 µM)
21 | COc1cnc2cc(CNCCC[C@H]3CN(c4ccc5c(c4)NC(=O)CS5)C(=O)O3)c(F)cc2n1 [Example 29, 6-((S)-5-{3-[(7-fluoro-2-methoxy-quinoxalin-6-ylmethyl)-amino]-propyl}-2-oxo-oxazolidin-3-yl)-4H-benzo[1,4]thiazin-3-one] | ≤ 0.031
22 | Cc1c(CNCCCC2CN(c3ccc4c(c3)NC(=O)CS4)C(=O)O2)sc2ccccc12 (racemic) [Example 8, rac-6-(5-{3-[(3-methyl-benzo[b]thiophen-2-ylmethyl)-amino]-propyl}-2-oxo-oxazolidin-3-yl)-4H-benzo[1,4]thiazin-3-one] | 0.063 (≈ 0.135 µM)
23 | O=C1CSc2ccc(N3CC(CCCNCc4ccc5ccccc5c4)OC3=O)cc2N1 (racemic) [Example 12, rac-6-(5-{3-[(naphthalen-2-ylmethyl)-amino]-propyl}-2-oxo-oxazolidin-3-yl)-4H-benzo[1,4]thiazin-3-one] | 1 (≈ 2.23 µM)
24 | O=C1COc2ccc(N3C[C@@H](CCCNCc4ccc5ccccc5n4)OC3=O)cc2N1 [Example 4, 6-((R)-2-oxo-5-{3-[(quinolin-2-ylmethyl)-amino]-propyl}-oxazolidin-3-yl)-4H-benzo[1,4]oxazin-3-one] | 0.063 (≈ 0.146 µM)
25 | COc1ccc2ncc(OCC3CN(CC[C@@H]4CN(c5ccc6c(c5)NC(=O)CS6)C(=O)O4)C3)nc2c1 [Example 20, 6-((R)-5-{2-[3-(7-methoxy-quinoxalin-2-yloxymethyl)-azetidin-1-yl]-ethyl}-2-oxo-oxazolidin-3-yl)-4H-benzo[1,4]thiazin-3-one] | ≤ 0.031
26 | O=C1CSc2ccc(N3CC(CCCNCc4ccc5c(F)cccc5n4)OC3=O)cc2N1 (racemic) [Example 7, rac-6-(5-{3-[(5-fluoro-quinolin-2-ylmethyl)-amino]-propyl}-2-oxo-oxazolidin-3-yl)-4H-benzo[1,4]thiazin-3-one] | 0.063 (≈ 0.135 µM)
27 | O=C1CSc2ccc(N3CC(CCCNCc4ccc5cccnc5c4)OC3=O)cc2N1 (racemic) [Example 13, rac-6-(2-oxo-5-{3-[(quinolin-7-ylmethyl)-amino]-propyl}-oxazolidin-3-yl)-4H-benzo[1,4]thiazin-3-one] | 0.5 (≈ 1.11 µM)
28 | COc1ccc2ncc(OCC3CN(C[C@@H]4CN(c5ccc6c(c5)NC(=O)CS6)C(=O)O4)C3)nc2c1 [Example 21, 6-{(R)-5-[3-(7-methoxy-quinoxalin-2-yloxymethyl)-azetidin-1-ylmethyl]-2-oxo-oxazolidin-3-yl}-4H-benzo[1,4]thiazin-3-one] | ≤ 0.031
29 | O=C1CSc2ccc(N3C[C@@H](CNCCNCc4ccc5ccccc5n4)OC3=O)cc2N1 [Example 27, 6-[(R)-2-oxo-5-({2-[(quinolin-2-ylmethyl)-amino]-ethylamino}-methyl)-oxazolidin-3-yl]-4H-benzo[1,4]thiazin-3-one] | 1 (≈ 2.16 µM)
